Measurements published in PubChem BioAssay AID1963962 (Molecular Pharmacology Branch, DTP, NCI, 2024).
pIC50: −log10 of the molar value.

Tested on: 967376-340-R-J2-PDC multicell spheroid viability
Assay: Anticancer human tumor 967376-340-R-J2-PDC patient-derived colon adenocarcinoma cell line growth inhibition [PI3K]
Details: for pIC50: curve of first compound; for viability, T/C: stronger effect = lower value
How it was run: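 Combination activity was assessed by viability in multicellular tumor spheroids carrying HUVEC and MSC components. Agents were tested with PI3K inhibitors from a Cmax-based top dose (or 10 microM) downward in half-log increments.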

[1] = second compound 0.0316 µM, first compound 0.0316 µM
[2] = second compound 0.0316 µM, first compound 0.1 µM
[3] = second compound 0.1 µM, first compound 0.0316 µM
[4] = second compound 0.1 µM, first compound 0.1 µM
[5] = second compound 0.316 µM, first compound 0.0316 µM
[6] = second compound 0.316 µM, first compound 0.1 µM
[7] = second compound 1 µM, first compound 0.0316 µM
[8] = second compound 1 µM, first compound 0.1 µM
[9] = second compound 3.16 µM, first compound 0.0316 µM
[10] = second compound 3.16 µM, first compound 0.1 µM
[11] = second compound 10 µM, first compound 0.0316 µM
[12] = second compound 10 µM, first compound 0.1 µM
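Further: spheroids exposed to agents for 7 days before read-out.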
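Wherever viability, T/C is given: luminescence used as surrogate of cell viability.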

In the case of `CC(=O)c1c(C)c2cnc(Nc3ccc(N4CCNCC4)cn3)nc2n(C2CCCC2)c1=O` + Cc1nc(NC(=O)N2CCCC2C(N)=O)sc1-c1ccnc(C(C)(C)C(F)(F)F)c1, the pIC50 (second compound 0.0316 µM) was < 7.00, the pIC50 (second compound 0.1 µM) was < 7.00 and the pIC50 (second compound 0.316 µM) was < 7.00. The pIC50 (second compound 1 µM) was < 7.00, the pIC50 (second compound 3.16 µM) was < 7.00 and the pIC50 (second compound 10 µM) was 7.61. It also gave a viability, T/C (second compound 0.0316 µM, first compound 0.000316 µM) of 98.9%, a viability, T/C (second compound 0.0316 µM, first compound 0.001 µM) of 84.7% and a viability, T/C (second compound 0.0316 µM, first compound 0.00316 µM) of 101%. It also gave a viability, T/C (second compound 0.0316 µM, first compound 0.01 µM) of 90.7%, a viability, T/C [1] of 102% and a viability, T/C [2] of 77.3%. The viability, T/C (second compound 0.1 µM, first compound 0.000316 µM) was 105%, the viability, T/C (second compound 0.1 µM, first compound 0.001 µM) was 94.3% and the viability, T/C (second compound 0.1 µM, first compound 0.00316 µM) was 88.3%. The viability, T/C (second compound 0.1 µM, first compound 0.01 µM) was 99.4%, the viability, T/C [3] was 109% and the viability, T/C [4] was 75.6%. The viability, T/C (second compound 0.316 µM, first compound 0.000316 µM) was 89%, the viability, T/C (second compound 0.316 µM, first compound 0.001 µM) was 82.1% and the viability, T/C (second compound 0.316 µM, first compound 0.00316 µM) was 75%. For the same compound, the viability, T/C (second compound 0.316 µM, first compound 0.01 µM) was 82.6%, the viability, T/C [5] was 84.2% and the viability, T/C [6] was 101%. The viability, T/C (second compound 1 µM, first compound 0.000316 µM) was 65%, the viability, T/C (second compound 1 µM, first compound 0.001 µM) was 74.4% and the viability, T/C (second compound 1 µM, first compound 0.00316 µM) was 88.7%. It also gave a viability, T/C (second compound 1 µM, first compound 0.01 µM) of 79.1%, a viability, T/C [7] of 75.5% and a viability, T/C [8] of 76.3%. For the same compound, the viability, T/C (second compound 3.16 µM, first compound 0.000316 µM) was 59.4%, the viability, T/C (second compound 3.16 µM, first compound 0.001 µM) was 68.2% and the viability, T/C (second compound 3.16 µM, first compound 0.00316 µM) was 74.5%. It also gave a viability, T/C (second compound 3.16 µM, first compound 0.01 µM) of 57.8%, a viability, T/C [9] of 63.8% and a viability, T/C [10] of 60.4%. The viability, T/C (second compound 10 µM, first compound 0.000316 µM) was 62.2%, the viability, T/C (second compound 10 µM, first compound 0.001 µM) was 50.8% and the viability, T/C (second compound 10 µM, first compound 0.00316 µM) was 57.2%. For the same compound, the viability, T/C (second compound 10 µM, first compound 0.01 µM) was 55.9%, the viability, T/C [11] was 46.3% and the viability, T/C [12] was 47.1%.
`CNC(=O)c1ccc(N2C(=S)N(c3ccc(C#N)c(C(F)(F)F)c3)C(=O)C2(C)C)cc1F` + Cc1nc(NC(=O)N2CCCC2C(N)=O)sc1-c1ccnc(C(C)(C)C(F)(F)F)c1 was tested, and the pIC50 (second compound 0.0316 µM) was < 5.00, the pIC50 (second compound 0.1 µM) was < 5.00 and the pIC50 (second compound 0.316 µM) was < 5.00. The pIC50 (second compound 1 µM) was < 5.00, the pIC50 (second compound 3.16 µM) was < 5.00 and the pIC50 (second compound 10 µM) was < 5.00. It also gave a viability, T/C [1] of 72.6%, a viability, T/C [2] of 93.5% and a viability, T/C (second compound 0.0316 µM, first compound 0.316 µM) of 90.1%. The viability, T/C (second compound 0.0316 µM, first compound 1 µM) was 98.6%, the viability, T/C (second compound 0.0316 µM, first compound 3.16 µM) was 107% and the viability, T/C (second compound 0.0316 µM, first compound 10 µM) was 105%. For the same compound, the viability, T/C [3] was 129%, the viability, T/C [4] was 85.5% and the viability, T/C (second compound 0.1 µM, first compound 0.316 µM) was 86.8%. The viability, T/C (second compound 0.1 µM, first compound 1 µM) was 88.5%, the viability, T/C (second compound 0.1 µM, first compound 3.16 µM) was 101% and the viability, T/C (second compound 0.1 µM, first compound 10 µM) was 84%. The viability, T/C [5] was 64.2%, the viability, T/C [6] was 72.8% and the viability, T/C (second compound 0.316 µM, first compound 0.316 µM) was 92.6%. For the same compound, the viability, T/C (second compound 0.316 µM, first compound 1 µM) was 83.5%, the viability, T/C (second compound 0.316 µM, first compound 3.16 µM) was 115% and the viability, T/C (second compound 0.316 µM, first compound 10 µM) was 85.8%. For the same compound, the viability, T/C [7] was 65.6%, the viability, T/C [8] was 70% and the viability, T/C (second compound 1 µM, first compound 0.316 µM) was 65.6%. For the same compound, the viability, T/C (second compound 1 µM, first compound 1 µM) was 68.5%, the viability, T/C (second compound 1 µM, first compound 3.16 µM) was 79.7% and the viability, T/C (second compound 1 µM, first compound 10 µM) was 75%. It also gave a viability, T/C [9] of 58.9%, a viability, T/C [10] of 62.6% and a viability, T/C (second compound 3.16 µM, first compound 0.316 µM) of 58.7%. For the same compound, the viability, T/C (second compound 3.16 µM, first compound 1 µM) was 55.9%, the viability, T/C (second compound 3.16 µM, first compound 3.16 µM) was 63.6% and the viability, T/C (second compound 3.16 µM, first compound 10 µM) was 59%. For the same compound, the viability, T/C [11] was 63.9%, the viability, T/C [12] was 55% and the viability, T/C (second compound 10 µM, first compound 0.316 µM) was 53.2%. It also gave a viability, T/C (second compound 10 µM, first compound 1 µM) of 57.3%, a viability, T/C (second compound 10 µM, first compound 3.16 µM) of 47.3% and a viability, T/C (second compound 10 µM, first compound 10 µM) of 59.5%.
`Cn1cnc2c(F)c(Nc3ccc(Br)cc3Cl)c(C(=O)NOCCO)cc21` + Cc1nc(NC(=O)N2CCCC2C(N)=O)sc1-c1ccnc(C(C)(C)C(F)(F)F)c1 showed a pIC50 (second compound 0.0316 µM) of 6.18, a pIC50 (second compound 0.1 µM) of 6.17 and a pIC50 (second compound 0.316 µM) of 6.44. For the same compound, the pIC50 (second compound 1 µM) was 6.52, the pIC50 (second compound 3.16 µM) was 7.01 and the pIC50 (second compound 10 µM) was 7.40. For the same compound, the viability, T/C (second compound 0.0316 µM, first compound 0.00949 µM) was 89%, the viability, T/C (second compound 0.0316 µM, first compound 0.03 µM) was 101% and the viability, T/C (second compound 0.0316 µM, first compound 0.0949 µM) was 104%. It also gave a viability, T/C (second compound 0.0316 µM, first compound 0.3 µM) of 60%, a viability, T/C (second compound 0.0316 µM, first compound 0.949 µM) of 48.1% and a viability, T/C (second compound 0.0316 µM, first compound 3 µM) of 19.7%. The viability, T/C (second compound 0.1 µM, first compound 0.00949 µM) was 88.3%, the viability, T/C (second compound 0.1 µM, first compound 0.03 µM) was 56.1% and the viability, T/C (second compound 0.1 µM, first compound 0.0949 µM) was 76.7%. For the same compound, the viability, T/C (second compound 0.1 µM, first compound 0.3 µM) was 61.8%, the viability, T/C (second compound 0.1 µM, first compound 0.949 µM) was 43.8% and the viability, T/C (second compound 0.1 µM, first compound 3 µM) was 28.7%. It also gave a viability, T/C (second compound 0.316 µM, first compound 0.00949 µM) of 68.5%, a viability, T/C (second compound 0.316 µM, first compound 0.03 µM) of 81.5% and a viability, T/C (second compound 0.316 µM, first compound 0.0949 µM) of 62.5%. For the same compound, the viability, T/C (second compound 0.316 µM, first compound 0.3 µM) was 56.7%, the viability, T/C (second compound 0.316 µM, first compound 0.949 µM) was 27% and the viability, T/C (second compound 0.316 µM, first compound 3 µM) was 16%. It also gave a viability, T/C (second compound 1 µM, first compound 0.00949 µM) of 68.8%, a viability, T/C (second compound 1 µM, first compound 0.03 µM) of 64.4% and a viability, T/C (second compound 1 µM, first compound 0.0949 µM) of 61.1%. For the same compound, the viability, T/C (second compound 1 µM, first compound 0.3 µM) was 51.6%, the viability, T/C (second compound 1 µM, first compound 0.949 µM) was 28.4% and the viability, T/C (second compound 1 µM, first compound 3 µM) was 15.6%. For the same compound, the viability, T/C (second compound 3.16 µM, first compound 0.00949 µM) was 54%, the viability, T/C (second compound 3.16 µM, first compound 0.03 µM) was 64.8% and the viability, T/C (second compound 3.16 µM, first compound 0.0949 µM) was 49.2%. For the same compound, the viability, T/C (second compound 3.16 µM, first compound 0.3 µM) was 26.6%, the viability, T/C (second compound 3.16 µM, first compound 0.949 µM) was 9.72% and the viability, T/C (second compound 3.16 µM, first compound 3 µM) was 3.22%. For the same compound, the viability, T/C (second compound 10 µM, first compound 0.00949 µM) was 54.6%, the viability, T/C (second compound 10 µM, first compound 0.03 µM) was 49.7% and the viability, T/C (second compound 10 µM, first compound 0.0949 µM) was 44.6%. It also gave a viability, T/C (second compound 10 µM, first compound 0.3 µM) of 28.8%, a viability, T/C (second compound 10 µM, first compound 0.949 µM) of 5.99% and a viability, T/C (second compound 10 µM, first compound 3 µM) of 1.33%.
